# Reference: publication PMC9297976 (Journal of Applied Toxicology, 2021)
# Tests used:
# [1] = target: T1, medaka Esr1 (mEsr1) (Oryzias latipes, UniProt P50241); experiment: cell-based; parameters: species or system Japanese medaka (Oryzias latipes)
# T1 sequence (P50241 1-620): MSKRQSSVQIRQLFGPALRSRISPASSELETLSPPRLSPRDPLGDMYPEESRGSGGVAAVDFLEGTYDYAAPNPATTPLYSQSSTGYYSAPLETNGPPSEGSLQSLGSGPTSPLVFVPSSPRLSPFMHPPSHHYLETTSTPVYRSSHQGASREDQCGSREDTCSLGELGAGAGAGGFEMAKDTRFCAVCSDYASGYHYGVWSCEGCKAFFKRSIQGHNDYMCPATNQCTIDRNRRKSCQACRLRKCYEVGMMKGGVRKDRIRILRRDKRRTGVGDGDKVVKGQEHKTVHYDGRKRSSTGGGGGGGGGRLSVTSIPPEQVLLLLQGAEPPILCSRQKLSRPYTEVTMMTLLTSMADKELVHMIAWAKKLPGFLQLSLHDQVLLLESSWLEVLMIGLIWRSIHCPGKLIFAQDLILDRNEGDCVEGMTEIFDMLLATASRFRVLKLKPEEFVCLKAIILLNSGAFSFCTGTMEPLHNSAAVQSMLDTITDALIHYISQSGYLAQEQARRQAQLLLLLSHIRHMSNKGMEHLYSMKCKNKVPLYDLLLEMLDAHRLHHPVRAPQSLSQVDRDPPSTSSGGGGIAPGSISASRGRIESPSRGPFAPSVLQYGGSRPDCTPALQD
# [2] = target: T1, medaka Esr1 (mEsr1); experiment: Medaka Esr1 reporter gene assay, antagonist assay; assay type: cell-based, Japanese medaka (Oryzias latipes); settings: E2 spiked at 0.2 nM (A); MAC = 1.0 × 10^−5 M
# [3] = target: T2, medaka ARβ (mArβ) (Oryzias latipes, UniProt D1MV73); experiment: Medaka ARβ reporter gene assay, agonist assay; assay type: cell-based, Japanese medaka (Oryzias latipes); settings: MAC = 1.0 × 10^−5 M
# T2 sequence (D1MV73 1-744): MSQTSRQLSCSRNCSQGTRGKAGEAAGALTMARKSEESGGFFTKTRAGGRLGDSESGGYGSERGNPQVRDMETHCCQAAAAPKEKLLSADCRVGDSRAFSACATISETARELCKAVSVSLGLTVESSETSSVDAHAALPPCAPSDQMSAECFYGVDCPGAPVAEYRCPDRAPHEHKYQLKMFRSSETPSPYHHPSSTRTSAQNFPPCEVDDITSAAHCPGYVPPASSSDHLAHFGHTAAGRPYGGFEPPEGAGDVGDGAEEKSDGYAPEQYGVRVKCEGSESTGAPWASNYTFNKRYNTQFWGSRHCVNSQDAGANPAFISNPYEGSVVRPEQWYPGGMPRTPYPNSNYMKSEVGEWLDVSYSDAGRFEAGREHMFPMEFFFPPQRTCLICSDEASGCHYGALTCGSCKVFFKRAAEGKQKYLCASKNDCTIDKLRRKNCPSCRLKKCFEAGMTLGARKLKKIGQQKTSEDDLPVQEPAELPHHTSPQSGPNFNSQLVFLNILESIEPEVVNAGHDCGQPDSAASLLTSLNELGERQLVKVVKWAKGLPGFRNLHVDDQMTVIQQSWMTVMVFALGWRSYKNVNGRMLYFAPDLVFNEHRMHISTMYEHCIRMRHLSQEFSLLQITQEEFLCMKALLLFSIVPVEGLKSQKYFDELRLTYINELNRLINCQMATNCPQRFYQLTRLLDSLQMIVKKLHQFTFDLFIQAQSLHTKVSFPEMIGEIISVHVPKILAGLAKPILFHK
# [4] = target: T2, medaka ARβ (mArβ); experiment: Medaka ARβ reporter gene assay, antagonist assay; assay type: cell-based, Japanese medaka (Oryzias latipes); settings: 11‐KT spiked at 10 nM (C); MAC = 1.0 × 10^−5 M
# [5] = system: Japanese medaka (Oryzias latipes); experiment: Fish Short‐Term Reproduction Assay; assay type: in vivo; settings: for GSI Female / GSI Male / HSI Female / HSI Male / Length Female / Length Male / Weight Female / Weight Male: completion of exposure
# [6] = system: Japanese medaka; settings: ref Flynn et al. (2018); cited from earlier work
# [7] = 598 μg/L measured, 21 d, sig. ↑ vs control
# [8] = 952 μg/L measured, 21 d, sig. ↑ vs control
# [9] = measured concentration 196 μg/L
# [10] = measured concentration 598 μg/L
# [11] = measured concentration 952 μg/L
structure (smiles),measurement,setting,value
"CCOP(=S)(OCC)Oc1cc(C)nc(C(C)C)n1 [DZ, Diazinon]",Agonistic activity PC10,[1],PC10 = 1.0 × 10^−5 M
same,In vitro positive: Esr,[1]; mode of action in which EC50 or PC10 was obtained in RGA,Esr
same,Antagonistic activity,[2],NE (MAC = 1.0 × 10^−5 M)^(A)
same,Agonistic activity,[3],NE (MAC = 1.0 × 10^−5 M)
same,Antagonistic activity,[4],NE (MAC = 1.0 × 10^−5 M)^(C)
same,Individuals with symptoms of presumed paralysis of motor function,[5]; 38 μg/L,12.5%
same,Fertility rate,"[5]; 38 μg/L measured, 21 d",96 ± 0.8%
same,"Hepatic VTG, female","[5]; 38 μg/L measured, 21 d","2,665 ± 1942 ng/mg‐liver"
same,"Hepatic VTG, male","[5]; 38 μg/L measured, 21 d",0.13 ± 0.16 ng/mg‐liver
same,Mortality,"[5]; 38 μg/L measured, 21 d",4.2%
same,"Mortality, number of dead fish","[5]; 38 μg/L measured, 21 d",1
same,Number of fertilized eggs (per female per day),"[5]; 38 μg/L measured, 21 d",18 ± 0.7
same,Number of total eggs (per female per day),"[5]; 38 μg/L measured, 21 d",19 ± 0.6
same,SSC female (joint plates with papillary processes),"[5]; 38 μg/L measured, 21 d",0 ± 0
same,SSC male (joint plates with papillary processes),"[5]; 38 μg/L measured, 21 d",82 ± 16
same,Fish with symptoms of presumed paralysis of motor function (in words),[5]; 196 μg/L level and above,all fish
same,"Hepatic VTG, female","[5]; 196 μg/L measured, 21 d","1722 ± 1,394 ng/mg‐liver"
same,"Hepatic VTG, male","[5]; 196 μg/L measured, 21 d",0.08 ± 0.14 ng/mg‐liver
same,Mortality,"[5]; 196 μg/L measured, 21 d",4.2%
same,"Mortality, number of dead fish","[5]; 196 μg/L measured, 21 d",1
same,SSC female (joint plates with papillary processes),"[5]; 196 μg/L measured, 21 d",0 ± 0
same,SSC male (joint plates with papillary processes),"[5]; 196 μg/L measured, 21 d",84 ± 19
same,Fertility rate,"[5]; 196 μg/L measured, 21 d, sig. ↓ vs control",12 ± 6.3%
same,"Hepatic VTG, female","[5]; 598 μg/L measured, 21 d",661 ± 552 ng/mg‐liver
same,"Hepatic VTG, male","[5]; 598 μg/L measured, 21 d",0.06 ± 0.04 ng/mg‐liver
same,SSC female (joint plates with papillary processes),"[5]; 598 μg/L measured, 21 d",0 ± 0
same,SSC male (joint plates with papillary processes),"[5]; 598 μg/L measured, 21 d",89 ± 17
same,Mortality,[5]; [7],42%
same,"Mortality, number of dead fish",[5]; [7],10
same,Fertility rate,"[5]; 598 μg/L measured, 21 d, sig. ↓ vs control",55 ± 6.7%
same,"Hepatic VTG, female","[5]; 952 μg/L measured, 21 d","1,621 ± 1,314 ng/mg‐liver"
same,"Hepatic VTG, male","[5]; 952 μg/L measured, 21 d",0.89 ± 1.67 ng/mg‐liver
same,SSC female (joint plates with papillary processes),"[5]; 952 μg/L measured, 21 d",0 ± 0
same,SSC male (joint plates with papillary processes),"[5]; 952 μg/L measured, 21 d",89 ± 15
same,Mortality,[5]; [8],58%
same,"Mortality, number of dead fish",[5]; [8],14
same,"Fecundity, number of total eggs (in words)",[5]; 21 d,statistically significant decrease
same,LOECmVTG,[5]; LOEC on VTG induction in males,ND (>952) μg/L
same,LOECREPRO,[5]; LOEC on reproduction (fecundity and/or fertility),196 µg/L
same,LOECTOX,[5]; lowest observed effect concentration on mortality,196 µg/L
same,GSI Female,[5]; measured concentration 38 μg/L,12.3 ± 1.3%
same,GSI Male,[5]; measured concentration 38 μg/L,0.9 ± 0.4%
same,HSI Female,[5]; measured concentration 38 μg/L,5.3 ± 1.20%
same,HSI Male,[5]; measured concentration 38 μg/L,2.8 ± 1.70%
same,Length Female,[5]; measured concentration 38 μg/L,30.7 ± 1.0 mm
same,Length Male,[5]; measured concentration 38 μg/L,30.1 ± 0.6 mm
same,Weight Female,[5]; measured concentration 38 μg/L,338 ± 36 mg
same,Weight Male,[5]; measured concentration 38 μg/L,294 ± 21 mg
same,GSI Female,[5]; [9],6.8 ± 3.5%
same,GSI Male,[5]; [9],0.6 ± 0.2%
same,HSI Female,[5]; [9],2.0 ± 0.70%
same,HSI Male,[5]; [9],1.6 ± 0.60%
same,Length Female,[5]; [9],28.5 ± 1.1 mm
same,Length Male,[5]; [9],28.5 ± 0.6 mm
same,Weight Female,[5]; [9],217 ± 19 mg
same,Weight Male,[5]; [9],200 ± 14 mg
same,GSI Female,[5]; [10],3.3 ± 0.7%
same,GSI Male,[5]; [10],0.4 ± 0.1%
same,HSI Female,[5]; [10],1.9 ± 0.30%
same,HSI Male,[5]; [10],1.2 ± 0.40%
same,Length Female,[5]; [10],28.7 ± 0.0 mm
same,Length Male,[5]; [10],29.6 ± 0.2 mm
same,Weight Female,[5]; [10],203 ± 47 mg
same,Weight Male,[5]; [10],190 ± 13 mg
same,GSI Female,[5]; [11],6.9 ± 2.4%
same,GSI Male,[5]; [11],0.5 ± 0.1%
same,HSI Female,[5]; [11],1.6 ± 0.50%
same,HSI Male,[5]; [11],1.5 ± 0.60%
same,Length Female,[5]; [11],27.5 ± 0.8 mm
same,Length Male,[5]; [11],28.3 ± 1.2 mm
same,Weight Female,[5]; [11],203 ± 26 mg
same,Weight Male,[5]; [11],183 ± 20 mg
same,LOEC on fecundity,[6],2.9 µg/L
same,LOEC on growth,[6],5.2 µg/L
